The values below come from PubChem BioAssay (NCI).

Holding throughout (experiment): inhibition of tumour cell growth, NCI panel, 48 h
For experiment [1], the system named is SF-539 CNS.
Experiment [2] concerns UACC-257 melanoma.
The subject of experiment [3] is LOX IMVI melanoma.
The test system of experiment [4] is TK-10 renal.
The subject of experiment [5] is K-562 leukemia.
In experiment [6] the test system is NCI-H23 lung.
Experiment [7] has as its system SK-MEL-5 melanoma.
Experiment [8] concerns HCT-15 colon.
In experiment [9] the test system is MDA-MB-231 breast.
In experiment [10] the test system is SF-268 CNS.
For experiment [11], the system named is SR leukemia.
Experiment [12] deals with UACC-62 melanoma.
The subject of experiment [13] is OVCAR-3 ovarian.
Experiment [14] has as its system A549 NSCLC.
The test system of experiment [15] is COLO 205 colon.
Experiment [16] relates to NCI-H226 lung.
Experiment [17] has as its system A498 renal.
For experiment [18], the system named is M14 melanoma.
Experiment [19] has as its system EKVX NSCLC.
Experiment [20] concerns HS 578T breast.

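Values below derive from 48-hour exposures of cells grown in 96-well plates, with endpoints linearly interpolated between the two concentrations bracketing the appropriate inhibition level. TGI marks complete inhibition of growth.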

As for `Cc1c(O)c(OC2OC(CO)C(O)C(O)C2O)cc2c1C=C[C@@H]1[C@@]2(C)C(=O)C[C@]2(C)[C@@H]([C@@](C)(O)C(O)/C=C/C(C)(C)O)[C@H](O)C[C@@]12C` (stereo partly drawn), the TGI in experiment [1], in experiment [2], in [3], in experiment [4], in [5] and in experiment [6] was over 100 µM in each case. Also, the TGI in [7], in [8], in [9], in [10], in experiment [11] and in experiment [12] was over 100 µM in each case. The TGI in [13], in [14], in experiment [15], in experiment [16], in experiment [17] and in [18] was over 100 µM throughout. Further, the TGI in experiment [19] was over 100 µM.
For the compound `CN(C)CCNCc1ccc2c(-c3ccccc3)nc3cc(Cl)c(Cl)cc3n12`, the TGI was found to be 14.4 µM in experiment [1]; 19.9 µM in experiment [2]; 14.9 µM in experiment [3]; 22.2 µM in experiment [4]; 31.9 µM in [5]; 28.9 µM in experiment [6]. Moreover, the TGI in [7] is 16.4 µM; in experiment [8], 23.2 µM; in [9], 25.2 µM; in experiment [10], 29.7 µM; in experiment [12] it was 17.7 µM; in experiment [13], 35.9 µM. For the same compound, the TGI in experiment [14] was 24.3 µM; in experiment [15], 14.1 µM; in [16], 37.5 µM; in [20], 47.6 µM; in [17], 29.9 µM; in [18], 15.3 µM. In addition, the TGI in experiment [19] came to 30.2 µM.
Take `CCOC(=O)/C(=C\NC(C)(C)C)c1nc2ccccc2[nH]1`: the TGI in experiment [1] came to 39.4 µM; in experiment [2], 35.2 µM; in experiment [3] it was 44.6 µM; in [4], 47.6 µM; in experiment [6] it was 35.9 µM; in experiment [7], 25.5 µM. Also, the TGI in experiment [8] was over 100 µM; in experiment [10], 55.9 µM; in experiment [11], 28.3 µM; in experiment [12], 30.1 µM; in experiment [13], 35 µM; in experiment [14], over 100 µM. For the same compound, the TGI was determined as 33.7 µM in [15]; 47 µM in [16]; 45.8 µM in experiment [20]; 57.3 µM in experiment [17]; 39.7 µM in experiment [18]; 34.5 µM in [19].
Consider `COc1ccc(/C=C2\C[C@H]3[C@@H]4CC=C5C[C@@H](OC(C)=O)CC[C@]5(C)[C@H]4CC[C@]3(C)\C2=N\O)cc1OC`, for which the TGI in experiment [1] is over 100 µM; in [2], over 100 µM; in experiment [3], over 100 µM; in [5], over 100 µM; in [6] it was over 100 µM; in [7], 9.83 µM. In addition, the TGI in experiment [8], in experiment [10], in experiment [11], in experiment [12], in experiment [13] and in experiment [14] was over 100 µM each time. The TGI in [15] is 27.1 µM; in experiment [16], 56.5 µM; in [20] it was over 100 µM; in experiment [17], over 100 µM; in experiment [18], over 100 µM; in [19] it was 27.2 µM.
As for `CC(C)=NNc1snnc1C(N)=O`, the TGI in [1], in experiment [2], in experiment [3], in experiment [4], in [5] and in experiment [6] was over 100 µM throughout. The TGI in experiment [7], in [9], in experiment [10], in experiment [12], in experiment [13] and in [14] was over 100 µM each time. Further, the TGI in experiment [15], in [16], in experiment [20], in experiment [17], in experiment [18] and in [19] was over 100 µM in each case.
Consider `Cc1c(O)c(OC2OC(CO)C(O)C(O)C2O)cc2c1CC[C@@H]1C2(C)C(=O)C[C@]2(C)[C@@H]([C@@](C)(O)C3CCC(C)(C)O3)[C@H](O)C[C@@]12C` (stereo partly drawn), for which the TGI in experiment [1], in [2], in experiment [3], in experiment [4], in [5] and in [6] was over 100 µM in each case. Also, the TGI in experiment [7], in experiment [8], in experiment [9], in experiment [10], in [11] and in experiment [12] was over 100 µM in each case. The TGI in experiment [13], in [14], in [15], in experiment [16], in experiment [17] and in experiment [18] was over 100 µM each time. Further, in [19], the TGI was over 100 µM.
For the compound `O=c1[nH]nc(-c2ccccc2)n1/N=C/c1ccco1`, the TGI in experiment [1], in experiment [2], in experiment [3], in [4], in experiment [6] and in experiment [7] was over 100 µM each time. Besides, the TGI in experiment [8], in experiment [10], in experiment [11], in experiment [12], in experiment [13] and in experiment [14] was over 100 µM in each case. Besides, the TGI in experiment [15], in experiment [20], in [17], in experiment [18] and in experiment [19] was over 100 µM throughout.
